Source: ChEMBL document CHEMBL1201862, “PubChem BioAssay data set” (2004)
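A five-concentration, 48-hour dose response in 96-well plates underlies each endpoint, interpolated linearly between surrounding concentrations. Here, GI50 denotes the concentration required for 50% inhibition of growth.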 Calls of active or inactive are those of the source. No stated cut-off is given here; in the data, active = GI50 up to about 1.1 µM and inactive = higher.

Experiments:
Assay in all cases: NCI-60 cell line screen, 48 h
IGROV-1 = tested on: IGROV-1
U-251 = tested on: U-251
SN12C = tested on: SN12C
RPMI-8226 = tested on: RPMI-8226
CCRF-CEM = tested on: CCRF-CEM
ACHN = tested on: ACHN
COLO 205 = tested on: COLO 205
UACC-62 = tested on: UACC-62
A549 = tested on: A549
HT-29 = tested on: HT-29
OVCAR-5 = tested on: OVCAR-5
OVCAR-4 = tested on: OVCAR-4
MDA-MB-231 = tested on: MDA-MB-231
TK-10 = tested on: TK-10
RXF 393 = tested on: RXF 393
PC-3 = tested on: PC-3
UACC-257 = tested on: UACC-257
Malme-3M = tested on: Malme-3M
SF-295 = tested on: SF-295
SK-MEL-5 = tested on: SK-MEL-5
NCI-H226 = tested on: NCI-H226
K562 = tested on: K562
SK-MEL-2 = tested on: SK-MEL-2
EKVX = tested on: EKVX
T47D = tested on: T47D
786-0 = tested on: 786-0
SNB-19 = tested on: SNB-19
SF-268 = tested on: SF-268
SK-OV-3 = tested on: SK-OV-3
SNB-75 = tested on: SNB-75
KM12 = tested on: KM12
HCT-116 = tested on: HCT-116
HOP-92 = tested on: HOP-92
NCI-H460 = tested on: NCI-H460
HL-60 = tested on: HL-60
SW-620 = tested on: SW-620
MCF7 = tested on: MCF7
NCI/ADR-RES = tested on: NCI/ADR-RES
HOP-62 = tested on: HOP-62
NCI-H23 = tested on: NCI-H23
CAKI-1 = tested on: CAKI-1
BT-549 = tested on: BT-549
Hs-578T = tested on: Hs-578T
MDA-MB-435 = tested on: MDA-MB-435
UO-31 = tested on: UO-31
LOX IMVI = tested on: LOX IMVI
MOLT-4 = tested on: MOLT-4
SK-MEL-28 = tested on: SK-MEL-28
SR = tested on: SR
SF-539 = tested on: SF-539
M14 = tested on: M14
HCT-15 = tested on: HCT-15
OVCAR-8 = tested on: OVCAR-8
DU-145 = tested on: DU-145
NCI-H522 = tested on: NCI-H522
OVCAR-3 = tested on: OVCAR-3
HCC 2998 = tested on: HCC 2998
A498 = tested on: A498

Measured: GI50

Nc1cc(Cl)ccc1SSc1ccc(Cl)cc1N
2.99 µM: HCT-15
inactive: IGROV-1 10.1 µM | U-251 4.15 µM | SN12C 11.9 µM | RPMI-8226 3.72 µM | CCRF-CEM 3.07 µM | ACHN 9.55 µM | COLO 205 16.8 µM | UACC-62 2.88 µM | A549 23.1 µM | HT-29 16.1 µM | OVCAR-5 14.8 µM | OVCAR-4 13.6 µM | MDA-MB-231 5.6 µM | TK-10 20.2 µM | RXF 393 10.3 µM | PC-3 5.7 µM | UACC-257 17.6 µM | Malme-3M 15.7 µM | SF-295 11 µM | SK-MEL-5 14 µM | NCI-H226 2.94 µM | K562 10.4 µM | SK-MEL-2 17 µM | EKVX 9.55 µM | T47D 5.92 µM | 786-0 13.2 µM | SNB-19 22.6 µM | SF-268 14.7 µM | SK-OV-3 15.7 µM | SNB-75 16.8 µM | KM12 9.51 µM | HCT-116 9.16 µM | HOP-92 41.7 µM | NCI-H460 12.5 µM | HL-60 16 µM | SW-620 3.94 µM | MCF7 3.85 µM | NCI/ADR-RES 7.94 µM | HOP-62 14.6 µM | NCI-H23 5.61 µM | CAKI-1 19.6 µM | BT-549 9.91 µM | Hs-578T 8.79 µM | MDA-MB-435 12.9 µM | UO-31 7 µM | LOX IMVI 3.49 µM | MOLT-4 4.06 µM | SK-MEL-28 15.9 µM | SR 4.32 µM | SF-539 12 µM | M14 8.65 µM | OVCAR-8 16.6 µM | DU-145 15.2 µM | NCI-H522 7.57 µM

Cc1ccc(SC[C@@]2(C(F)F)NC(=O)NC2=O)cc1
inactive: IGROV-1 > 100 µM | U-251 > 100 µM | RPMI-8226 > 100 µM | CCRF-CEM > 100 µM | ACHN > 100 µM | COLO 205 > 100 µM | UACC-62 > 100 µM | A549 > 100 µM | HT-29 > 100 µM | OVCAR-5 > 100 µM | OVCAR-4 > 100 µM | MDA-MB-231 > 100 µM | TK-10 > 100 µM | RXF 393 > 100 µM | PC-3 > 100 µM | UACC-257 > 100 µM | Malme-3M > 100 µM | SF-295 > 100 µM | SK-MEL-5 > 100 µM | NCI-H226 > 100 µM | OVCAR-3 > 100 µM | K562 > 100 µM | SK-MEL-2 > 100 µM | EKVX > 100 µM | T47D > 100 µM | 786-0 > 100 µM | SNB-19 > 100 µM | SF-268 > 100 µM | SK-OV-3 > 100 µM | SNB-75 > 100 µM | HCC 2998 > 100 µM | KM12 > 100 µM | HCT-116 > 100 µM | HOP-92 > 100 µM | NCI-H460 > 100 µM | HL-60 > 100 µM | SW-620 > 100 µM | NCI/ADR-RES > 100 µM | HOP-62 > 100 µM | NCI-H23 > 100 µM | CAKI-1 > 100 µM | BT-549 > 100 µM | Hs-578T > 100 µM | MDA-MB-435 > 100 µM | UO-31 > 100 µM | LOX IMVI > 100 µM | MOLT-4 > 100 µM | A498 > 100 µM | SK-MEL-28 > 100 µM | SR > 100 µM | M14 > 100 µM | OVCAR-8 > 100 µM | DU-145 > 100 µM | NCI-H522 > 100 µM
> 100 µM: HCT-15
